Measured values from ChEMBL document CHEMBL2321708, “Modulators of the GPR119 Receptor for the Treatment of Metabolic Syndrome” (ACS Med Chem Lett, 2013).
Blank lines part the entries; values can stand above or below the compound they belong to.

What was measured:
Type in all cases: functional
[1] = system: unidentified; assay: Effect on glucose homeostasis in diabetes model (unknown origin) assessed as release of GIP at 30 mg/kg, po administered intratracheally measured 120 mins post glucose challenge
[2] = system: unidentified; assay: Effect on glucose homeostasis in diabetes model (unknown origin) assessed as release of GIP at 30 mg/kg, […] measured 60 mins post glucose challenge
[3] = system: unidentified; assay: Effect on glucose homeostasis in diabetes model (unknown origin) assessed as release of GIP at 30 mg/kg, […] measured 40 mins post glucose challenge
[4] = system: unidentified; assay: Effect on glucose homeostasis in diabetes model (unknown origin) assessed as release of GIP at 30 mg/kg, […] measured 20 mins post glucose challenge
[5] = system: unidentified; assay: Effect on glucose homeostasis in diabetes model (unknown origin) assessed as release of GIP at 30 mg/kg, po administered intratracheally measured 30 mins before glucose challenge
[6] = Effect on glucose homeostasis in diabetes model (unknown origin) assessed as release of GIP at 3 mg/kg, […] measured 120 mins post glucose challenge
[7] = Effect on glucose homeostasis in diabetes model (unknown origin) assessed as release of GIP at 3 mg/kg, […] measured 60 mins post glucose challenge
[8] = Effect on glucose homeostasis in diabetes model (unknown origin) assessed as release of GIP at 3 mg/kg, […] measured 40 mins post glucose challenge
[9] = Effect on glucose homeostasis in diabetes model (unknown origin) assessed as release of GIP at 3 mg/kg, […] measured 20 mins post glucose challenge
[10] = Effect on glucose homeostasis in diabetes model (unknown origin) assessed as release of GIP at 3 mg/kg, […] measured 30 mins before glucose challenge
[11] = target: T1, Glucose-dependent insulinotropic receptor (Homo sapiens, UniProt Q8TDV5); assay: Agonist activity at human GPR119 by HTRF cAMP assay
T1 sequence (Q8TDV5 whole entry): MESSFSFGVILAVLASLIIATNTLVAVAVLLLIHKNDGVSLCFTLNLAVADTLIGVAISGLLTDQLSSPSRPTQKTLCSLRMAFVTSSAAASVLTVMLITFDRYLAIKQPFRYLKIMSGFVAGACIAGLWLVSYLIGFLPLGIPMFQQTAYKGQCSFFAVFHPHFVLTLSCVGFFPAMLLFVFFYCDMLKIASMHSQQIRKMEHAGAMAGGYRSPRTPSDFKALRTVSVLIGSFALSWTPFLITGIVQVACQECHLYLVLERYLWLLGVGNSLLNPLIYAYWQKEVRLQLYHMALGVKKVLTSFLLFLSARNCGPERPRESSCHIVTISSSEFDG

SMILES: CCc1cnc(N2CCC(CO[C@H]3CC[C@H](c4ccc(S(C)(=O)=O)cc4F)CC3)CC2)nc1
Activity [1]: 107.5%
Activity [2]: 193.2%
Activity [3]: 204.2%
Activity [4]: 163.5%
Activity [5]: 72.2%
Activity [6]: 163.3%
Activity [7]: 262.8%
Activity [8]: 250.2%
Activity [9]: 201.3%
Activity [10]: 88.7%

EC50 [11]: 38 nM
SMILES: CC(C)c1noc(N2CCC(CO[C@H]3CC[C@H](c4ccc(S(C)(=O)=O)cc4F)CC3)CC2)n1

EC50 [11]: 15 nM
SMILES: CC(C)(F)c1noc(N2CCC(COC3CC=C(c4ccc(S(C)(=O)=O)cc4)CC3)CC2)n1 (stereo not drawn)

EC50 [11]: 707 nM
SMILES: CC(C)(C)OC(=O)N1CCC(CO[C@H]2CC[C@H](c3cnc(S(C)(=O)=O)cn3)CC2)CC1
